# Reference: patent US11311540B2, “Increasing expression of interferon regulated genes with combinations of histone deacetylase inhibitors and immunomodulatory drugs” (ACETYLON PHARMACEUTICALS, INC., priority 2016, dated 2022)
# Legend:
# H929 myeloma cells = test: Cell cycle distribution by flow cytometry (propidium iodide); type: cell-based; settings: 3 and 5 days, Compound A 2 μM, lenalidomide 2 μM, pomalidomide 1 μM
# Method: (§1) H929 (FIGS. 6A & 6B) or MM.1s (FIGS. 6C & 6D) myeloma cells were exposed to drug for 3 (FIGS. 6A & 6C) and 5 (FIGS. 6B & 6D) days and cell cycle distribution was assessed by flow cytometry via incorporation of propidium iodide. The relative fraction of cells in each stage of the cell cycle (G0/G1, S, and G2/M) as well as the fraction of dead cells (Sub G1) was then estimated.
# MM.1s myeloma cells [1] = test: as above; type: cell-based; settings: 3 and 5 days, Compound A 2 μM, lenalidomide 2 μM, pomalidomide 1 μM
# Method: as §1
# CCL4 = CCL4 gene expression (microarray probes); type: cell-based, human; settings: Compound A 2, 3, 4 μM, pomalidomide 1 μM; 24 hour and 48 hour
# Text: (§2) The chip comprises a human gene expression array having more than 530,000 probes covering more than 36,000 transcripts and variants, which represent more than 20,000 genes mapped through RefSeq or via UniGene annotation. […] In the table, “A” indicates Compound A, and “Pom” indicates pomalidomide.
# (§3) Each bar in each group of bars per treatment represents individual transcript probes for measuring gene expression level. […] Finally, there also appeared to be independent time components for each transcript.
# BIRC5 = BIRC5 (survivin) gene expression (microarray probes); type: cell-based, human; settings: Compound A 2, 3, 4 μM, pomalidomide 1 μM; 24 and 48 hours
# Method: as §2
# (§4) Finally, both effects were enhanced with time, though dose-dependence was less clear at 48 hours.
# preclinical models of MM = settings: in vitro and in vivo; cited from earlier work
# H929 cells = test: Apoptosis by flow cytometry (Annexin V / propidium iodide); type: cell-based; settings: 5 and 7 days, Compound A 2 μM, lenalidomide 2 μM, pomalidomide 1 μM
# Method: Flow cytometry analysis was then used to measure the number of healthy and apoptotic cells under each treatment condition.
# (§5) H929 (FIGS. 7A & 7B) or MM.1s (FIGS. 7C & 7D) myeloma cells were exposed to drug for 5 (FIGS. 7A & 7C) and 7 (FIGS. 7B & 7D) days, and apoptosis was assessed by flow cytometry by measuring Annexin V binding and cellular permeability to propidium iodide. The relative fraction of cells that were live, in early apoptosis, in late apoptosis, or dead was then determined.
# α-tubulin = test: Acetylation of α-tubulin in H929 cells (immunoblot); type: cell-based
# XAF1 = XAF1 gene expression (microarray probes); type: cell-based, human; settings: Compound A 2, 3, 4 μM, pomalidomide 1 μM; 24 hour and 48 hour
# Text: as §2, §3
# [2] = system: interferon regulated genes; test: Gene Set Enrichment Analysis (GSEA) of microarray data; type: cell-based, human; settings: single agent vs. DMSO at 48 hours (pomalidomide 1 μM; Compound A 4 μM)
# Method: (§6) The data acquired from Example 7 was analyzed using two approaches: (1) Gene Set Enrichment Analysis (GSEA), and in the (2) Library of Integrated Network-based Cellular Signatures (LINCS) database.
# (§7) The goal of the GSEA was to identify gene sets that are enriched in combination treatment over single agent treatment. […] Relevant gene sets were those that were enriched in both queries in the same direction (increased or decreased). For this analysis, the “hallmark gene sets” was chosen as the database, which comprises coherently expressed signatures derived by aggregating many molecular signatures database (MSigDB) gene sets to represent well-defined biological states or processes.
# myc target genes = test: as above; type: cell-based, human; settings: single agent vs. DMSO at 48 hours (pomalidomide 1 μM; Compound A 4 μM)
# Method: as §6, §7
# MM.1s myeloma cells [3] = test: Apoptosis by flow cytometry (Annexin V / propidium iodide); type: cell-based; settings: 5 and 7 days, Compound A 2 μM, lenalidomide 2 μM, pomalidomide 1 μM
# Method: as §5
# CASP1 = CASP1 gene expression (microarray probes); type: cell-based, human; settings: Compound A 2, 3, 4 μM, pomalidomide 1 μM; 24 and 48 hours
# Method: as §2, §4
# [4] = Phase I trials; cited from earlier work
# [5] = Body weight and tolerability in CB17-SCID mice; type: in vivo
# Method: Mice carrying H929 tumor xenografts were treated with DMSO, Compound B (50 mg/kg IP QD), pomalidomide (1 mg/kg IP QD), or the combination of Compound B (50 mg/kg IP QD) and pomalidomide (1 mg/kg IP QD) daily for up to 42 days.
# HDAC6 = biological target: T1, HDAC6 (Homo sapiens, UniProt Q9UBN7); test: HDAC6 selectivity over other HDACs; type: biochemical
# T1 sequence (Q9UBN7 1-1215): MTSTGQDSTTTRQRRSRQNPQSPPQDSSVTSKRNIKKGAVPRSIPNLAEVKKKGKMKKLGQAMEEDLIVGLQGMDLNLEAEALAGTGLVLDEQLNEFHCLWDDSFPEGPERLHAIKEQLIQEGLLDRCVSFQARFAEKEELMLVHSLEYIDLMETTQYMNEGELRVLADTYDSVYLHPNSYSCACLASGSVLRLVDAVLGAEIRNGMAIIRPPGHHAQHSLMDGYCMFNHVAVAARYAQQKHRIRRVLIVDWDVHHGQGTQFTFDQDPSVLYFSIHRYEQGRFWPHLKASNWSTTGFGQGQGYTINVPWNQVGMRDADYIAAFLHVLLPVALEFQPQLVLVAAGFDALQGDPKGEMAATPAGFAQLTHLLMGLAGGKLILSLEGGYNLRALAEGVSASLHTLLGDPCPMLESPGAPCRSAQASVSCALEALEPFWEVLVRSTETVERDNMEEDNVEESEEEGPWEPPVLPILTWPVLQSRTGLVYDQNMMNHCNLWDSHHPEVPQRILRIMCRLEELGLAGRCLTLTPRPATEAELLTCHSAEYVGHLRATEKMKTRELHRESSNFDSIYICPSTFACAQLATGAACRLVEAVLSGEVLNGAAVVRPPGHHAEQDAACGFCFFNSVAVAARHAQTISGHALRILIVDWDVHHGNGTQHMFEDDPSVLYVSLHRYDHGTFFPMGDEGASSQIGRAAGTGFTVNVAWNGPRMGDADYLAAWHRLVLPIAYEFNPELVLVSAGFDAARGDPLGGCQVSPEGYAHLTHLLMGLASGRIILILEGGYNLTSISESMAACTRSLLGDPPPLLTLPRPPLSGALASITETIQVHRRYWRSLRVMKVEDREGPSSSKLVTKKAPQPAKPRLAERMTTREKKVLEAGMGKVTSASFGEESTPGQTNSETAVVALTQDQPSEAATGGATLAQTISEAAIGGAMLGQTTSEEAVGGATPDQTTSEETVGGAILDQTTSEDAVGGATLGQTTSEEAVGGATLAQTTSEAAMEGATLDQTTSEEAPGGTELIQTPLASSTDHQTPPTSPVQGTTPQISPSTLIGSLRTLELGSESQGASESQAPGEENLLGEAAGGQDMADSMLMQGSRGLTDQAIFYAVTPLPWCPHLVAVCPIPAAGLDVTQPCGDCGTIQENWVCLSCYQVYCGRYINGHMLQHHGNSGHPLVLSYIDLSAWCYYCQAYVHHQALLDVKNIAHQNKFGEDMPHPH
# Text: The synthesis of the compounds of Formula I is provided in PCT/US2011/021982, which is incorporated herein by reference in its entirety. The synthesis of compounds of Formula II is provided in PCT/US2011/060791, which is incorporated herein by reference in its entirety. The synthesis of the compounds of Formula III is provided in U.S. Pat. Nos. 5,635,517; 6,281,230; 6,335,349; and 6,476,052; and in International Patent Application No. PCT/US97/013375, each of which is incorporated herein by reference in its entirety.
# H929 = test: Expression profiling with Affymetrix […] microarrays, number of differentially regulated genes; type: cell-based, human; settings: pomalidomide 1 μM
# Text: as §2
smiles,measurement,setting,value
"O=C(CCCCCCNC(=O)c1cnc(N(c2ccccc2)c2ccccc2)nc1)NO [Compound A, 2-(diphenylamino)-N-(7-(hydroxyamino)-7-oxoheptyl)pyrimidine-5-carboxamide]",cell cycle distribution,H929 myeloma cells,small reduction of cells undergoing division in S phase
same,cell cycle distribution,MM.1s myeloma cells [1],small reduction of cells undergoing division in S phase
same,CCL4 expression,CCL4,consistent dose-dependent induction
same,BIRC5 expression,BIRC5,consistent dose-dependent effect
same,synergy with bortezomib,preclinical models of MM,synergizes in vitro and in vivo with bortezomib
same,apoptosis,H929 cells,small increase in apoptosis
same,inhibition of HDAC6: acetylation of α-tubulin,α-tubulin,hyperacetylation of α-tubulin
same,XAF1 expression,XAF1,consistent dose-dependent induction
same,"Normalized Enrichment Score (NES), interferon regulated genes",[2],2.72
same,"Normalized Enrichment Score (NES), myc targets",myc target genes,−2.23
same,apoptosis,MM.1s myeloma cells [3],small increase in apoptosis
same,CASP1 expression,CASP1,consistent dose-dependent effect
same,safety and tolerability profile,[4],improved safety and tolerability profile
"O=C(CCCCCCNC(=O)c1cnc(N(c2ccccc2)c2ccccc2Cl)nc1)NO [Compound B, 2-((2-chlorophenyl)(phenyl)amino)-N-(7-(hydroxyamino)-7-oxoheptyl)pyrimidine-5-carboxamide]","tolerability, body weight",[5],very well tolerated with no weight loss and no evidence of overt toxicity
"O=C(NO)c1cnc(NC2(c3cccc(F)c3)CCCCC2)nc1 [Compound C, 2-((1-(3-fluorophenyl)cyclohexyl)amino)-N-hydroxypyrimidine-5-carboxamide]",selective for HDAC6 over class I HDACs,HDAC6,more than 300 fold
"Nc1cccc2c1C(=O)N(C1CCC(=O)NC1=O)C2=O (stereo not shown) [pomalidomide, reference compound]","tolerability, body weight",[5],very well tolerated with no weight loss and no evidence of overt toxicity
same,CCL4 expression,CCL4,small induction
same,BIRC5 expression,BIRC5,relatively small change
same,XAF1 expression,XAF1,small induction
same,"Normalized Enrichment Score (NES), interferon regulated genes",[2],2.87
same,"Normalized Enrichment Score (NES), myc targets",myc target genes,−1.97
same,CASP1 expression,CASP1,relatively small change
same,number of genes with fold expression changes greater than 2 relative to vehicle: Down,H929; 24 h,531
same,number of genes with fold expression changes greater than 2 relative to vehicle: Total,H929; 24 h,979
same,number of genes with fold expression changes greater than 2 relative to vehicle: Up,H929; 24 h,448
same,number of genes with fold expression changes greater than 2 relative to vehicle: Down,H929; 48 h,865
same,number of genes with fold expression changes greater than 2 relative to vehicle: Total,H929; 48 h,1905
same,number of genes with fold expression changes greater than 2 relative to vehicle: Up,H929; 48 h,1040
